Measured values: patent publication EP4060021A1, “MIMETIC MICROBIOLOGICAL CULTURE MEDIUM AND USES THEREOF” (BIOFILM PHARMA, priority 2021, dated 2022)

Tests used:
[1] = tested on: souches de S. aureus issues de prélèvements de plaies du pied infectées chez des patients diabétiques; assay: Antibiotic susceptibility test (MIC, 96-well microplate, OD 600 nm) in Mueller-Hinton medium (MH); type: cell-based; design: key to Classification (S) ou (R) en MH: S (sensible); R (résistante)
Excerpt: (§1) • La Figure 1 représente des courbes de croissance de bactéries en fonction du milieu de culture. Sur cette figure, les ordonnées correspondent au logarithme d'unités formant colonie par millilitre de milieu de culture (Log UFC/ml) et les abscisses, au temps en heure (H). La Figure 1A représente les courbes correspondant à la croissance de 2 souches de S. aureus, Newman (gauche) et SAC1 (droite), dans le milieu BHI (courbe avec indicateurs ronds) et un exemple de milieu selon l'invention (MP) (courbe avec indicateurs carrés). La Figure 1B représente les courbes correspondant à la croissance de 2 souches de P. aeruginosa, PAO1 (gauche) et PAC1 (droite), dans le milieu BHI (courbe avec indicateurs ronds) et un exemple de milieu selon l'invention (MP) (courbe avec indicateurs carrés). La Figure 1C représente les courbes correspondant à la croissance de 2 souches cliniques S. aureus SAC1 et P. aeruginosa PAC1, en coculture dans le milieu BHI (P. aeruginosa BHI ou S. aureus BHI) et un exemple de milieu selon l'invention (MP) (P. aeruginosa MP ou S. aureus MP). La mesure de différence significative, réalisée par le test de Student, entre les valeurs d'UFC/mL est exprimée, soit par (***) qui correspond à une p-value <0,001, soit par (**) qui correspond à une p-value <0,01. • La Figure 2 représente les résultats obtenus d'une détermination de l'adhésion et de la formation de biofilm par dénombrement à 24h. Sur cette figure, les ordonnées correspondent au logarithme d'unités formant colonie par millilitre de milieu de culture (Log UFC/ml). La Figure 2A représente un histogramme ou diagramme en bâton du nombre de bactéries dénombrées suite à des cultures séparées de souche S. aureus Newman (Newman), S. aureus SAC1 (SAC 1), P. aeruginosa PAO1 (PAO1) ou P. aeruginosa PAC1 (PAC1), pendant 24H dans un milieu BHI (BHI) (bâtons noirs) ou dans un exemple de milieu selon l'invention (MP) (bâtons gris). La Figure 2B montre sous forme d'histogramme le nombre de bactéries dénombrées suite à des co-cultures des souches de référence S. aureus Newman et P. aeruginosa PAO1 (PAO1/Newman), ainsi que du couple de souches cliniques S. aureus SAC1 et P. aeruginosa PAC1 (PAC 1/SAC1), pendant 24H dans un milieu BHI (BHI) (bâtons noirs) ou dans un exemple de milieu selon l'invention (MP) (bâtons gris). La mesure de différence significative, réalisée par le test de Student, entre les valeurs d'UFC est exprimée, soit par (***) qui correspond à une p-value <0,001, soit par (**) qui correspond à une p-value <0,01. • La Figure 3 représente les résultats obtenus d'une détermination de sensibilité à des antibiotiques de souches cliniques de S. aureus issues d'infections de plaies du pied chez le diabétique. Les données cliniques, anonymisées, nécessaires à l'interprétation des résultats, consistaient en l'antibiothérapie donnée au patient, ainsi que la qualification par les médecins hospitaliers d'un succès ou échec thérapeutique. La définition de succès ou échec thérapeutique est définie comme suit. Le patient commence et suit l'antibiothérapie prescrite et un deuxième prélèvement microbiologique est effectué lors du dernier jour de traitement de la 1ère antibiothérapie (± 2 jours). Ce prélèvement est utilisé pour déterminer la présence/absence du pathogène ciblé par l'antibiothérapie, S. aureus. Si ce prélèvement a montré la persistance d'un S. aureus, l'antibiothérapie est en échec. A l'inverse, en cas d'absence de S. aureus, l'antibiothérapie est associée à un succès thérapeutique. Les antibiogrammes ont été réalisés classiquement sur une durée de 18h ± 2h en accord avec les recommandations de l'EUCAST. Une gamme de l'antibiotique à tester a été réalisée. • La Figure 3A montre sous forme d'histogramme les résultats des CMI déduites d'antibiogrammes sur 11 souches testées en présence d'amoxicilline / clavulanate de potassium (commercialisé par exemple sous le nom d'Augmentin (marque déposée)).

[2] = tested on: souches de S. aureus issues de prélèvements de plaies du pied infectées chez des patients diabétiques; assay: Antibiotic susceptibility test (MIC, 96-well microplate, OD 600 nm) in wound medium of the invention (MP); type: cell-based
Excerpt: as §1

souche de S. aureus = conditions: modèle de sepsis, souris infectée par S. aureus, traitées; cited from earlier work
[3] = souche associée à un succès thérapeutique

Substance: cotrimoxazole
- CMI en milieu MH ([1]; souche C01P0 01): 0,5 mg/L
- Classification (S) ou (R) en MH ([1]; souche C01P0 01): (S)
- CMI en milieu MH ([1]; souche C01P0 11): 4 mg/L
- Classification (S) ou (R) en MH ([1]; souche C01P0 11): (S)
- CMI en milieu MH ([1]; souche C03P0 02): 1 mg/L
- Classification (S) ou (R) en MH ([1]; souche C03P0 02): (S)
- CMI en milieu MH ([1]; souche C03P0 07): 1 mg/L
- Classification (S) ou (R) en MH ([1]; souche C03P0 07): (S)
- CMI dans le milieu MH [1, 3]: 4 mg/L
- CMI dans un exemple de milieu selon l'invention (MP) ([2]; 3 souches associées à un échec thérapeutique): 16 mg/L
- CMI en milieu plaie MP ([2]; souche C01P0 01): 16 mg/L
- Classification (S) ou (R) en MP ([2]; souche C01P0 01): (R) (valeur de CMI mesurée dans l'exemple de milieu selon l'invention supérieure au seuil et peuvent être classifiées comme résistantes (noté R dans le tableau 5B))
- CMI en milieu plaie MP ([2]; souche C01P0 11): 8 mg/L
- Classification (S) ou (R) en MP ([2]; souche C01P0 11): (S) (avantageusement inférieur au seuil et peut être classifiée comme sensible (noté S dans le tableau 5B))
- CMI en milieu plaie MP ([2]; souche C03P0 02): 16 mg/L
- Classification (S) ou (R) en MP ([2]; souche C03P0 02): (R) (valeur de CMI mesurée dans l'exemple de milieu selon l'invention supérieure au seuil et peuvent être classifiées comme résistantes (noté R dans le tableau 5B))
- CMI en milieu plaie MP ([2]; souche C03P0 07): 16 mg/L
- Classification (S) ou (R) en MP ([2]; souche C03P0 07): (R) (valeur de CMI mesurée dans l'exemple de milieu selon l'invention supérieure au seuil et peuvent être classifiées comme résistantes (noté R dans le tableau 5B))
- CMI mesurée dans un exemple de milieu selon l'invention (MP) [2, 3]: 8 mg/L
- survie des souris (souche de S. aureus): n'a pas permis la survie des souris
